Results reported in patent publication EP0326640B1, “(1R,5S,6S)-2-substituted thio-6 (R)-1-hydroxyethyl -1-methyl-carbapenem - carboxylic acid derivatives” (LEDERLE (JAPAN) LTD., priority 1987, dated 1989).
Values after ≈ are worked out from the molar mass of the structure shown.

Columns and labels:
Proteus vulgaris HX-19 = assay: Antibacterial test, agar plate dilution method (MIC), standard strains; type: cell-based; conditions: Proteus vulgaris HX-19; MH agar, 37°C, 18 hours
Experimental: (§1) The antibacterial activities were tested by an agar plate dilution method in accordance with the standard method of The Japanese Chemotherapy Society [Chemotherapy, Vol. 29, 76-79 (1981)].
(§2) A Mueller-Hinton (MH) agar liquid medium of a test microorganism was cultured overnight at 37°C and the resultant culture medium was diluted with a buffered saline gelatin (BSG) solution to contain approximately 10⁶ cells of the test microorganisms per milliliter, and then the diluted solution was inoculated with a microplanter at the rate of approximately 5 microliters on a MH agar medium containing a test compound. This medium was then incubated at 37°C for 18 hours. The minimum inhibitory concentration (MIC) is determined as a minimum concentration in which no test microorganism could grow. It is noted here that the test organisms used were all standard strains.

[1] = system: Salmonella paratyphi 1015; assay: as above; type: cell-based; conditions: MH agar, 37°C, 18 hours
Experimental: as §1, §2

[2] = system: Salmonella schottmuelleri 8006; assay: as above; type: cell-based; conditions: MH agar, 37°C, 18 hours
Experimental: as §1, §2

[3] = system: Pseudomonas aeruginosa IFO 3445; assay: as above; type: cell-based; conditions: MH agar, 37°C, 18 hours
Experimental: as §1, §2

Proteus vulgaris OX-19 = assay: as above; type: cell-based; conditions: Proteus vulgaris OX-19; MH agar, 37°C, 18 hours
Experimental: as §1, §2

[4] = system: Serratia marcescens IAM1184; assay: as above; type: cell-based; conditions: MH agar, 37°C, 18 hours
Experimental: as §1, §2

[5] = system: Pseudomanas aeruginosa NCTC 10940; assay: as above; type: cell-based; conditions: MH agar, 37°C, 18 hours
Experimental: as §1, §2

[6] = system: Proteus mirabilis IFO3849; assay: as above; type: cell-based; conditions: Proteus mirabilis IFO3849; MH agar, 37°C, 18 hours
Experimental: as §1, §2

[7] = system: Salmonella enteritidis G14; assay: as above; type: cell-based; conditions: Salmonella enterica, MH agar, 37°C, 18 hours, read-out: MIC
Experimental: as §1, §2

[8] = system: Morganella morganii IFO3848; assay: as above; type: cell-based; conditions: MH agar, 37°C, 18 hours
Experimental: as §1, §2

Salmonella typhi 901 = assay: as above; type: cell-based; conditions: MH agar, 37°C, 18 hours
Experimental: as §1, §2

[9] = system: Providencia rettgeri IFO 3850; assay: as above; type: cell-based; conditions: MH agar, 37°C, 18 hours
Experimental: as §1, §2

[10] = system: Pseudomonas aeruginosa GN 918; assay: Antibacterial activity against clinically isolated β-lactamase (cephalosporinase) producing strains (MIC); type: cell-based; conditions: Pseudomonas aeruginosa, GN918, Pseudomonas aeruginosa GN 918; cephalosporinase producing strain, SDA, 18 to 20 hours
Experimental: (§3) The antibacterial activities against clinically isolated β-lactamase producing strains were tested by the agar plate dilution method in accordance with the standard method of The Japanese Chemotherapy Society [Chemotherapy, Vol. 29, 76-79 (1981)]. A solution of a cephalosporinase producing strain stored by Episome Research Institute, prepared by incubating the strain in a sensitivity test broth (STB; product of Nissui K. K.) for 18 hours, was diluted with a fresh STB solution so that the solution contained 10⁶ cells per milliliter. The diluted solution was then inoculated as spots in a microplanter on a sensitivity disk agar-N (SDA; product of Nissui K. K.) containing a test compound. The disk agar was then incubated for 18 to 20 hours. The minimum inhibitory concentration was determined as a minimum concentration in which the test microorganism no longer grew after a 18 to 20-hour incubation.

Proteus morganii GN 5375 = assay: as above; type: cell-based; conditions: Morganella morganii, GN5375, cephalosporinase producing strain, SDA, 18 to 20 hours
Experimental: as §3

[11] = system: Enterobacter cloacae GN 7467; assay: as above; type: cell-based; conditions: Enterobacter cloacae, GN7467, Enterobacter cloacae GN 7467; cephalosporinase producing strain, SDA, 18 to 20 hours
Experimental: as §3

Serratia marcescens L-65 = assay: as above; type: cell-based; conditions: Serratia marcescens L-65; cephalosporinase producing strain, SDA, 18 to 20 hours
Experimental: as §3

[12] = system: Pseudomonas aeruginosa GN 10362; assay: as above; type: cell-based; conditions: cephalosporinase producing strain, SDA, 18 to 20 hours
Experimental: as §3

[13] = system: Serratia marcescens GN 10857; assay: as above; type: cell-based; conditions: Serratia marcescens GN 10857; cephalosporinase producing strain, SDA, 18 to 20 hours
Experimental: as §3

[14] = system: Providencia rettgeri GN 4430; assay: as above; type: cell-based; conditions: cephalosporinase producing strain, SDA, 18 to 20 hours
Experimental: as §3

[15] = system: Klebsiella oxytoca GN 10650; assay: as above; type: cell-based; conditions: Klebsiella oxytoca GN 10650; cephalosporinase producing strain, SDA, 18 to 20 hours
Experimental: as §3

Proteus vulgaris GN 7919 = assay: as above; type: cell-based; conditions: Proteus vulgaris GN 7919; cephalosporinase producing strain, SDA, 18 to 20 hours
Experimental: as §3

[16] = system: Citrobactor freundii GN 7391; assay: as above; type: cell-based; conditions: cephalosporinase producing strain, SDA, 18 to 20 hours
Experimental: as §3

Proteus morganii GN 5307 = assay: as above; type: cell-based; conditions: Proteus morganii GN 5307; cephalosporinase producing strain, SDA, 18 to 20 hours
Experimental: as §3

[17] = system: Pseudomonas cepacia GN 11164; assay: as above; type: cell-based; conditions: cephalosporinase producing strain, SDA, 18 to 20 hours
Experimental: as §3

Serratia marcescens L-82 = assay: as above; type: cell-based; conditions: cephalosporinase producing strain, SDA, 18 to 20 hours
Experimental: as §3

[18] = system: Enterobacter cloacae GN 7471; assay: as above; type: cell-based; conditions: cephalosporinase producing strain, SDA, 18 to 20 hours
Experimental: as §3

[19] = system: Escherichia coli No. 1501; assay: as above; type: cell-based; conditions: cephalosporinase producing strain, SDA, 18 to 20 hours
Experimental: as §3

[20] = system: Enterobacter cloacae GN 5797; assay: as above; type: cell-based; conditions: cephalosporinase producing strain, SDA, 18 to 20 hours
Experimental: as §3

Escherichia coli GN 5482 = assay: as above; type: cell-based; conditions: cephalosporinase producing strain, SDA, 18 to 20 hours
Experimental: as §3

[21] = system: Pseudomonas aeruginosa GN 10367; assay: as above; type: cell-based; conditions: GN10367; Pseudomonas aeruginosa GN 10367; cephalosporinase producing strain, SDA, 18 to 20 hours; read-out: MIC
Experimental: as §3

Escherichia coli No. 96 = assay: as above; type: cell-based; conditions: cephalosporinase producing strain, SDA, 18 to 20 hours
Experimental: as §3

Proteus vulgaris GN 76 = assay: as above; type: cell-based; conditions: Proteus vulgaris GN 76; cephalosporinase producing strain, SDA, 18 to 20 hours
Experimental: as §3

[22] = system: Citrobactor freundii GN 346; assay: as above; type: cell-based; conditions: cephalosporinase producing strain, SDA, 18 to 20 hours
Experimental: as §3

[23] = system: Providencia rettgeri GN 4762; assay: as above; type: cell-based; conditions: Providencia rettgeri GN 4762; cephalosporinase producing strain, SDA, 18 to 20 hours
Experimental: as §3

Proteus vulgaris GN 4413 = assay: as above; type: cell-based; conditions: Proteus vulgaris GN 4413; cephalosporinase producing strain, SDA, 18 to 20 hours
Experimental: as §3

[24] = system: Providencia rettgeri GN 5284; assay: as above; type: cell-based; conditions: cephalosporinase producing strain, SDA, 18 to 20 hours
Experimental: as §3

Proteus morganii GN 5407 = assay: as above; type: cell-based; conditions: Morganella morganii, GN5407, cephalosporinase producing strain, SDA, 18 to 20 hours
Experimental: as §3

[25] = system: P. aeruginosa resistant strains; assay: Sensitivity test against clinical isolates, agar plate dilution method; type: cell-based
Experimental: The test procedures were based on the agar plate dilution method in accordance with the standard method of The Japanese Chemotherapy Society. The minimum inhibitory concentration (MIC) was determined in substantially the same manner as the test procedures II above using the 54 strains of P. aeruginosa having an anti-Pseudomonas resistance.

[26] = system: male mice of CrjCD(SD) strain; assay: Toxicity, intravenous administration to mice, observation for one week; type: in vivo; conditions: 500 mg/kg administered intravenously; group of 10 male mice
Experimental: Toxicological studies were carried out using a group of 10 male mice of CrjCD(SD) strain weighing from 20 to 23 grams. A solution containing the crystalline carbapenem compound (20) of the present invention obtained by Example 11 was administered intravenously to the mice and subjected to observations for one week.

Structure (SMILES): C[C@@H](O)[C@H]1C(=O)N2C(C(=O)[O-])=C(SCc3cs[n+](C)n3)[C@H](C)[C@H]12 [Crystalline Compd. (20), (1R,5S,6S)-2-[(2-methyl-1,2,3-thiadiazolium-4-yl)methyl]thio-6-[(R)-1-hydroxyethyl]-1-methyl-carbapenem-3-carboxylate]
- MIC (Proteus vulgaris HX-19): 1.56 µg/mL (≈ 4.39 µM)
- MIC [1]: 1.56 µg/mL (≈ 4.39 µM)
- MIC [2]: 0.39 µg/mL (≈ 1.1 µM)
- MIC [3]: 0.39 µg/mL (≈ 1.1 µM)
- MIC (Proteus vulgaris OX-19): 1.56 µg/mL (≈ 4.39 µM)
- MIC [4]: 0.78 µg/mL (≈ 2.19 µM)
- MIC [5]: 0.2 µg/mL (≈ 0.563 µM)
- MIC [6]: 3.13 µg/mL (≈ 8.81 µM)
- MIC [7]: 0.78 µg/mL (≈ 2.19 µM)
- MIC [8]: 0.2 µg/mL (≈ 0.563 µM)
- MIC (Salmonella typhi 901): 0.013 µg/mL (≈ 0.0366 µM)
- MIC [9]: 0.025 µg/mL (≈ 0.0703 µM)
- MIC [10]: 1.56 µg/mL (≈ 4.39 µM)
- MIC (Proteus morganii GN 5375): 1.56 µg/mL (≈ 4.39 µM)
- MIC [11]: 1.56 µg/mL (≈ 4.39 µM)
- MIC (Serratia marcescens L-65): 0.39 µg/mL (≈ 1.1 µM)
- MIC [12]: 0.78 µg/mL (≈ 2.19 µM)
- MIC [13]: 3.13 µg/mL (≈ 8.81 µM)
- MIC [14]: 0.39 µg/mL (≈ 1.1 µM)
- MIC [15]: 0.2 µg/mL (≈ 0.563 µM)
- MIC (Proteus vulgaris GN 7919): 0.78 µg/mL (≈ 2.19 µM)
- MIC [16]: 0.78 µg/mL (≈ 2.19 µM)
- MIC (Proteus morganii GN 5307): 0.78 µg/mL (≈ 2.19 µM)
- MIC [17]: 0.39 µg/mL (≈ 1.1 µM)
- MIC (Serratia marcescens L-82): 0.2 µg/mL (≈ 0.563 µM)
- MIC [18]: 0.1 µg/mL (≈ 0.281 µM)
- MIC [19]: 0.05 µg/mL (≈ 0.141 µM)
- MIC [20]: 0.1 µg/mL (≈ 0.281 µM)
- MIC (Escherichia coli GN 5482): 0.05 µg/mL (≈ 0.141 µM)
- MIC [21]: 3.13 µg/mL (≈ 8.81 µM)
- MIC (Escherichia coli No. 96): 0.05 µg/mL (≈ 0.141 µM)
- MIC (Proteus vulgaris GN 76): 3.13 µg/mL (≈ 8.81 µM)
- MIC [22]: 0.78 µg/mL (≈ 2.19 µM)
- MIC [23]: 0.2 µg/mL (≈ 0.563 µM)
- MIC (Proteus vulgaris GN 4413): 3.13 µg/mL (≈ 8.81 µM)
- MIC [24]: 0.39 µg/mL (≈ 1.1 µM)
- MIC (Proteus morganii GN 5407): 1.56 µg/mL (≈ 4.39 µM)
- concentration to inhibit the growth of all the test microorganisms [25]: 6.25 µg/mL
- percent of strains inhibited at 3.13 µg/mL ([25]; Pseudomonas aeruginosa, read-out: test microorganisms whose growth is inhibited): ~99%
- toxicity, observations for one week [26]: alive without any abnormal observations
